These results are taken from article PMC6596218, “Anthranilic amide and imidazobenzothiadiazole compounds disrupt Mycobacterium tuberculosis membrane potential” (MedChemComm, 2019).

Converted amounts (≈) assume the structure as drawn.

One data set concerns M. tuberculosis H37Rv. As to the kind of experiment: Minimum bactericidal concentration at pH 4.5 (MBC4.5), luminescence readout. It is filed as cell-based, Mycobacterium tuberculosis. Particulars: for MBC: Mycobacterium tuberculosis, H37RV, 168 h.
Data set [1] concerns HepG2 cells. Kind of data set: HepG2 cytotoxicity (CellTiter-Glo, 72 h). It is filed as cell-based. Particulars: Homo sapiens, mean ± standard deviation, replicates in parentheses.
For another data set, the system named is M. tuberculosis. Further details: method as in PMID 30501173. Particulars: non-replicating, cited from earlier work.
The subject of data set [2] is non-replicating M. tuberculosis. As to the kind of experiment: Non-replicating kill kinetics at pH 5.5 (CFU over 21 days). It is filed as cell-based, Mycobacterium tuberculosis. As to conditions: single replicate; for log kill at 14 days: pH 5.5, 14 days; for log kill within 21 days: pH 5.5, 21 days.
Data set [3] concerns intracellular M. tuberculosis in RAW 264.7 cells. As to the kind of experiment: Activity against intracellular M. tuberculosis in RAW 264.7 cells. It is filed as cell-based, Mycobacterium tuberculosis. As to conditions: RAW 264.7 cells (ATCC TIB-71). The text has this: In addition to determination of the MBC4.5 for each compound, we evaluated antitubercular activity of the compounds as measured by MIC at pH 5.6 (Table S1 ^†) and IC50 against intracellular M. tuberculosis in RAW 264.7 cells (ATCC TIB-71) (Table S2 ^†). […] General cytotoxicity against the infected RAW 264.7 cells was observed and was correlated with cytotoxicity against HepG2 cells (Table S2 ^†).

Data set [4] relates to M. tuberculosis membrane potential. Kind of data set: M. tuberculosis membrane potential (DiOC2 red/green fluorescence ratio). It is filed as cell-based, Mycobacterium tuberculosis. As to conditions: CCCP positive control.
For data set [5], the system named is HepG2 cells. It is filed as cell-based, human. Particulars: human, 30 min, pH 7.4. As for the experimental part: Measurement of membrane potential in HepG2 human liver cells (ATCC) was adapted from the method published by Huang.[40] Cells were plated at a density of 50 000 cells per well (100 μL) in black-walled 96-well plates and incubated overnight. Culture medium was replaced with the same volume of assay buffer (80 mM NaCl, 75 mM KCl, 25 mM D-glucose, 25 mM HEPES pH 7.4) containing test compounds at indicated concentrations; CCCP and DMSO served as controls. Plates were incubated at 37 °C for 30 min, followed by incubation with 4 μM DiOC2 for 20 min at RT. Cells were washed 4 times with 150 μL assay buffer, and suspended in 100 μL of assay buffer. A Synergy H1 microplate reader (BioTek Instruments) was used to measure fluorescence (488 nm/530 nm and 488 nm/620 nm). Each test compound was evaluated in at least two replicate experiments.

Where [6] appears, read: median, pH 4.5 phosphate citrate buffer, 7 days, 2-log reduction threshold, replicates in parentheses.

The term MBC denotes the smallest concentration meeting the test's criterion for killing. Broadly, the IC50 is the concentration that gives 50% inhibition. Take `O=[N+]([O-])c1cc2nc(C(F)(F)F)[nH]c2c2nsnc12` [Compound 2]: in the data set on M. tuberculosis H37Rv (setting [6]), the MBC was found to be 25 µM (≈ 7.23 µg/mL) and the MBC4.5 is 25 (2) μM. For the same compound, in the data set on HepG2 cells [1], the half-inhibitory concentration (IC50) came to 83 ± 24 µM. In addition, in the data set on M. tuberculosis (pH 4.5 and pH 6.8, 10–100 μM, 7 days), the “decrease of CFU in the culture within 7 days” value is reported as above 4 logs. Further, the “time to sterilizing the culture” value in the data set with M. tuberculosis (pH 4.5 and pH 6.8, all concentrations 10–100 μM) was at most 14 days.

Consider `O=C(Nc1ccc(Cl)cc1)c1ccccc1NS(=O)(=O)c1ccc(Br)cc1` [Compound 3, 2-(4-bromophenylsulfonamido)-N-(4-chlorophenyl)benzamide], for which the MBC in the data set with M. tuberculosis H37Rv (setting [6]) worked out at 50 µM (≈ 23.3 µg/mL). In the data set on HepG2 cells [1], the 50% inhibitory concentration (IC50) amounted to 11 ± 4.7 µM. Also, the “log kill within 7 days” value in data set [2] (pH 5.5, 7 days) is given as above 3 log. Also, in data set [2], the “log kill at 14 days” value is recorded as above 4 log.

`CS(=O)(=O)Nc1ccccc1C(=O)Nc1ccc(Cl)cc1Cl` [Compound 8, N-(2,4-dichlorophenyl)-2-(methylsulfonamido)benzamide]: the minimal bactericidal concentration (MBC) with M. tuberculosis H37Rv (setting [6]) was 75 µM (≈ 26.9 µg/mL). In addition, the IC50 with HepG2 cells [1] came out at 78 ± 29 µM. Also, the “log kill at 14 days” value in data set [2] is given as above 4 log.

`CCN(C)c1ccccc1C(=O)Nc1ccc(Cl)cc1Cl` [Compound 11, N-(2,4-dichlorophenyl)-2-(ethyl(methyl)amino)benzamide]: the minimum bactericidal concentration (MBC) in the data set on M. tuberculosis H37Rv (setting [6]) is above 200 µM. In addition, in the data set on HepG2 cells [1], the IC50 came out at 69 ± 44 µM. Also, in data set [3], the “antitubercular activity against intracellular M. tuberculosis” value is recorded as “showed antitubercular activity”.

As to `Cc1ccc(S(=O)(=O)Nc2ccccc2C(=O)Nc2ccc(Cl)cc2Cl)cc1` [Compound 15, N-(2,4-dichlorophenyl)-2-(4-methylphenylsulfonamido)benzamide], the minimal bactericidal concentration (MBC) with M. tuberculosis H37Rv (setting [6]) is above 200 µM. In addition, the half-inhibitory concentration (IC50) in the data set with HepG2 cells [1] came out at 37 ± 8.5 µM. Besides, the “log kill within 21 days” value in data set [2] is recorded as above 3 logs.

In the case of `O=C(Nc1ccccn1)c1ccccc1NS(=O)(=O)c1ccc(Br)cc1` [Compound 24, 2-(4-bromophenylsulfonamido)-N-(pyridin-2-yl)benzamide], the MBC with M. tuberculosis H37Rv (setting [6]) stood at 113 µM (≈ 48.8 µg/mL). Also, the half-maximal inhibitory concentration (IC50) in the data set with HepG2 cells [1] was 52 ± 13 µM. Besides, the “log kill within 21 days” value in data set [2] is given as above 3 logs.

Take `CN(C(=O)c1ccccc1NS(=O)(=O)c1ccc(Br)cc1)c1ccc(Cl)cc1Cl` [Compound 25, 2-(4-bromophenylsulfonamido)-N-(2,4-dichlorophenyl)-N-methylbenzamide]: the MBC in the data set with M. tuberculosis H37Rv (setting [6]) is above 200 µM. Besides, in the data set on M. tuberculosis H37Rv (pH 4.5), the “antitubercular activity (by MBC4.5, in words)” value is given as “loss of antitubercular activity”. The IC50 with HepG2 cells [1] was determined as 60 ± 9.9 µM. Besides, in data set [4] (pH 5.6), the “disruption of M. tuberculosis membrane potential at pH 5.6” value is recorded as “maintained its disruption of M. tuberculosis membrane potential at pH 5.6”. Besides, the “disruption of M. tuberculosis membrane potential at pH 6.8” value in data set [4] (pH 6.8) is “showed some capacity to depolarize the membrane, but the effect was at much higher concentrations”. Moreover, in the data set with HepG2 cells [5], the “disruption of HepG2 cell membrane potential” value is listed as “decrease in membrane potential in HepG2 cells comparable in magnitude to CCCP at concentrations significantly below the IC50”.
